In patent US20030203888A1, “Chromophores” (priority 2001, published 2003):

What was measured:
[1] = Solubility in water of the chloride salts
[2] = molecular target: BSA (Bos taurus, UniProt P02769); experiment: 'Blank' bioconjugation: non-covalent binding of unreactive fluorophore to BSA (gel filtration, UV analysis); details: after PD-10 gel filtration
Source text: (§1) Experiments have been undertaken to determine the level of non-covalent binding of fluorophore to the protein surface (BSA and avidin). ‘Blank’ bioconjugations using mixtures of the unreactive DPCH and DPBC derivatives 2,3-dihydroxy-5-(4-methoxyphenyl)-15-(4-acetomidophenyl)chlorin (higher Rf regioisomer) and 2,3,12,13-tetrahydroxy-5-(4-acetomidophenyl)-15-(4-methoxyphenyl) bacteriochlorin (higher Rf […] stereoisomer) with both BSA and avidin have been carried out and the resultant protein solutions have been purified by gel filtration (PD-10) as described for the reactive probes described earlier. […] For BSA or avidin, 1 unreactive DPCH binds to each protein molecule, whereas DPBC is less than 1 due probably to its increased polarity and non-amphiphilic nature.

[3] = molecular target: avidin (Gallus gallus, UniProt P02701); experiment: 'Blank' bioconjugation: non-covalent binding of unreactive fluorophore to avidin (gel filtration, UV analysis); details: after PD-10 gel filtration
Source text: as §1

[4] = tested on: Colo 320 cells; experiment: FACS conjugate binding analysis; type: cell-based, human; details: FITC detection, 3 repeats
Experimental: Wash flask of cells with phosphate buffered saline (PBS) pH 7.3. Treat with 5 mM EDTA in PBS for 10 min at 37C. Tap flask to dislodge cells, place in 50 mL polypropylene tube and pellet at 400 g 3 min. Resuspend in 10 mL PBS and count cells. Place 2×10^5 in FACS tube (Falcon 2054) and wash with 1 mL PBS by centrifugation (400 g 3 min) and resuspension by agitation
Block cells in 500 μL 2% Marvel milk powder in PBS, 1% BSA 30 min RT
Wash cells in 1 mL PBS/BSA/Azide centifuge and resuspend pellet (as above)
Add 10 μL appropriate antibody dilution. Incubate on ice 1 h
Add 50 μL Rabbit anti-mouse:FITC (Serotec, 1/100 dilution) and incubate on ice in the dark 1 h
Wash cells in 1 mL PBS/BSA/Azide centiflige (as above) and resuspend pellet in 400 μL PBS/BSA/Azide.
Run samples through FACS machine using CellQuest acquisition software to collect data.
FACS analyses were run in accordance with Methodology Description 5.

[5] = tested on: Colo 320 cells; experiment: Standard photocytotoxicity test (MTT); type: cell-based, human; details: 3.6J/cm2 filtered red light, MTT % cell survival
Experimental: Cells are grown to confluence or appropriate density then washed 2 times with PBS (phosphate buffered saline) to eliminate all trace of FBS (fretal bovine serum). Cell density is adjusted to 1.5×10^6 cells/ml in medium without FBS and these are then incubated for 1 hour in the dark (37 degrees C., 5% CO2) with a range of photosensitiser/conjugate concentrations. Post incubation, cells are washed further with medium (without FBS)to eliminate unbound photosensitiser, then resuspended and seeded in 96 wells plates (1×10^5 cells/well) in quadruplate. Plates are then either irradiated (3.6J/cm2 of filtered red light […]) or left in the dark as “dark toxicity controls” for the same period of time (14 minutes).Five microliters (5%/well) of FBS is added after the irradiation/dark period and the plates are returned to the incubator overnight. Twenty to 24 hours after treatment, 10 μl of MTT solution (Sigma Thiazolyl blue, 4.8×10^−4M in PBS)is added per well and the plates are returned to the incubator until color develops (between 1 and 4 hours). A solution of acid-alcohol (100 μl/well of 0.04N HCL in isopropanol) is the added and mixed thoroughly to dissolve the dark blue crystals. Plates are then read at 570 nm in a microplate reader and the % cell survival calculated against controls. […]

Sequence of BSA (P02769 25-607): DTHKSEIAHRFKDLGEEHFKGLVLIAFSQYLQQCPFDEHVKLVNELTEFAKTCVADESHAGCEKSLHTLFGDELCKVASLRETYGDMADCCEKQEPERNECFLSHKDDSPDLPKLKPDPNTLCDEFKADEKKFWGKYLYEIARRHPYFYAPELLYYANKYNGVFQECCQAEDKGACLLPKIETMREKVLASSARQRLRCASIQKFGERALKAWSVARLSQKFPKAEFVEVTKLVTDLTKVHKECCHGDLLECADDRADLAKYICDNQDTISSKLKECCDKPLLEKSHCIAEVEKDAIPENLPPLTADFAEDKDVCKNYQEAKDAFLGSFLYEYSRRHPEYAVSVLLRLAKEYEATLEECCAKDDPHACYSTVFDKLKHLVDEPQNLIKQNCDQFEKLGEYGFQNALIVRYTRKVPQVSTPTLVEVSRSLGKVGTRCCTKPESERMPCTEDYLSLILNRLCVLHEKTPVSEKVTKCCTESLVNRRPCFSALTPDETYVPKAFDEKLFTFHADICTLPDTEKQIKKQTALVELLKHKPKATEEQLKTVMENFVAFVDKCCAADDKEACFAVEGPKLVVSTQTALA
Sequence of avidin (P02701 25-152, species assumed): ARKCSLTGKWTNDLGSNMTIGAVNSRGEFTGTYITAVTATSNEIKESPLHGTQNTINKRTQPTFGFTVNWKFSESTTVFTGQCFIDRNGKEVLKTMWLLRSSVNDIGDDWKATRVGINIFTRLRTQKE

## Oc1cc(O)cc(-c2c3nc(c(-c4cc(O)cc(O)c4)c4ccc([nH]4)c(-c4cc(O)cc(O)c4)c4nc(c(-c5ccc(N=C=S)cc5)c5ccc2[nH]5)C=C4)C=C3)c1
other
  melting point: > 350 °C (dec.)

## S=C=Nc1ccc(-c2c3nc(c(-c4ccncc4)c4ccc([nH]4)c(-c4ccncc4)c4nc(c(-c5ccncc5)c5ccc2[nH]5)C=C4)C=C3)cc1
other
  melting point: > 350 °C (dec.)

## S=C=Nc1ccc(-c2c3nc(c(-c4cccnc4)c4ccc([nH]4)c(-c4cccnc4)c4nc(c(-c5cccnc5)c5ccc2[nH]5)C=C4)C=C3)cc1
other
  melting point: > 350 °C (dec.)

## 5-(4-Isothiocyanatophenyl)-10,15,20-tris(4-N-methylpyridiniumyl) porphyrin Trichloride [Example 6]
[1]
  solubility in water: water soluble

## COc1ccc(-c2c3nc(cc4ccc([nH]4)c(-c4ccc(NC(C)=O)cc4)c4nc(cc5ccc2[nH]5)C=C4)C(O)C3O)cc1 (stereo not shown) [Example 10, 17,18-Dihydroxy-5-(4-acetamidophenyl)-15-(4-methoxyphenyl)chlorin]
[2]
  unreactive fluorophore molecules non-covalently bound to each protein molecule: 1
[3]
  unreactive fluorophore molecules non-covalently bound to each protein molecule: 1

## COc1ccc(-c2c3nc(cc4ccc([nH]4)c(-c4ccc(NC(C)=O)cc4)c4nc(cc5ccc2[nH]5)C(O)C4O)C(O)C3O)cc1 (stereo not shown) [Example 12, 7,8,17,18-tetrahydroxy-5-(4-acetamidophenyl)-15-(4-methoxyphenyl)bacteriochlorin]
[2]
  unreactive fluorophore molecules non-covalently bound to each protein molecule: less than 1
[3]
  unreactive fluorophore molecules non-covalently bound to each protein molecule: less than 1

## Nc1ccc(-c2c3nc(c(-c4cc(O)cc(O)c4)c4ccc([nH]4)c(-c4cc(O)cc(O)c4)c4nc(c(-c5cc(O)cc(O)c5)c5ccc2[nH]5)C=C4)C=C3)cc1 [OH6-NH2, 5-(4-Aminophenyl)-10,15,20-tris(3,5-dihydroxyphenyl)porphyrin]
other
  melting point: > 350 °C (dec.)

B1: OH6/17.1A: OH6 conjugated with 17.1A monoclonal antibody, MRs of 2.5, 5, 10 and 20 (conjugate, chains of the INN, looked up)
VH: QVQLQQSGAELVRPGTSVKVSCKASGYAFTNYLIEWVKQRPGQGLEWIGVINPGSGGTNYNEKFKGKATLTADKSSSTAYMQLSSLTSDDSAVYFCARDGPWFAYWGQGTLVTVSA
VL: NIVMTQSPKSMSMSVGERVTLTCKASENVVTYVSWYQQKPEQSPKLLIYGASNRYTGVPDRFTGSGSATDFTLTISSVQAEDLADYHCGQGYSYPYTFGGGTKLEIK
modifications: conjugated to OH6
[4]
  binding to Colo 320 cells: has bound to the cells
[5]
  photocytotoxicity following irradiation: significant increase in cytotoxicity on irradiation

B2: PYR/17.1A: PYR conjugated with 17.1A monoclonal antibody (conjugate, chains of the INN, looked up)
VH: B1 VH
VL: B1 VL
modifications: conjugated to PYR
notes: PYR conjugated with 17.1A monoclonal antibody
[4]
  binding to Colo 320 cells: has bound to the cells
[5]
  photocytotoxicity following irradiation: significant increase in cytotoxicity on irradiation
